Source: US20060019892A1 (Florida Atlantic University, priority 2003, published 2006)
Non-standard residues stand in square brackets, D forms with d. No end group written: not given here. Hyp = O=C(O)[C@@H]1C[C@@H](O)CN1

Tested on: primary cultures of rat neonatal cortex (cultured cortical neurons)
Type: cell-based

A-O-A-N-S-V-W-S (A[Hyp]ANSVWS) [gla-2]
effect on Ca^++ flux in the cells: reducing Ca^++ flux | modulation of Ca^++ flux in cultured neurons from rat cortex: modulate Ca^++ flux
